Data from patent US20150175585A1, “FUSED QUINONIC COMPOUNDS” (CENTRO ATLANTICO DEL MEDICAMENTO S.A (CEAMED, S.A.), priority 2012, published 2015).
Like-named read-outs stand apart in the source and are kept apart here.

How the values were obtained:
JAK2 = JAK2 phosphorylation western blot assay; format: cell-based, human; conditions: 10 microM, HEL or K562 cells (table does not say which)
Description: (§1) The Human Erythroleukemia cell line HEL and the human Chronic Myeloid Leukemia cell line K562 were cultured in RPM I 1640 medium containing 10% fetal bovine serum (FBS) and 50 U/ml penicillin/50 U/ml streptomycin at 37° C. in a 5% CO2 humidified atmosphere to a density of 300.000 viable cells/mL in presence of WP1066 (positive control of phosphorylation inhibition) (Verstovsek et al., 2008) or CM-363 at concentrations of 1, 5 and 10 μM. Cell culture reagents were all obtained from BioWhittaker® (Lonza, Verniers, Belgium). Cell growth and viability was determined by propidium iodide (fluorescent dye) exclusion method using the Accuchip 4× Counting Kit and the ADAM automatic cell counter (Digital-Bio, NanoEntek, Ic., Washington St, Mass., USA).As a control of unspecific phosphorylation, some cells in each experiment were exposed to vehicle (negative control of phosphorylation inhibition) (0.1% DMSO).
(§2) For total protein extraction, cells were scraped with RIPA 1× lysis buffer (25 mM Tris-HCl pH 7.6, 150 mM NaCl, 1% NP-40, 1% sodium deoxycholate, 0.1% SDS, no. 89900, Thermo Scientific, Rockford, Ill., USA) supplemented with 1× protease and 1× phosphatase inhibitor cocktails (100× Halt™ Protease Inhibitor Cocktail, no. 87786 and 100× Halt Phosphatase Inhibitor Cocktail, no. 78420, both from Thermo Scientific, Rockford, Ill., USA). An aliquot of each extract was preserved for protein quantification by bicinchoninic acid assay (Pierce® BCA Protein Assay Kit, no. 23225, Thermo Scientific, Rockford, Ill., USA).
(§3) Proteins were solubilized in sample buffer containing 0.0625 M Tris-HCl, pH 6.8, 2.3% (wt/vol) SDS, 10% (vol/vol) glycerol, 5% (vol/vol) f3-mercaptoethanol, and 0.001% (wt/vol) bromophenol blue and boiled at 95° C. for 5 min. Equal amounts (50 μg) of each sample were electrophoresed on 8-10% sodium dodecyl sulfate-polyacrylamide gel electrophoresis (SDS-PAGE) and transferred to nitrocellulose membranes (iBlot® Gel Transfer Stacks, Nitrocellulose, no. IB4010-02, Invitrogen, Barcelona, Spain) as described previously (Fernandez, L, et al., Endocrinology, 13, 1815-1824, 1998; B. Guerra et al., J. Neurochem, 91, 99-109, 2004; B. Guerra et al., J. Appl. Physiol., 102, 1786-1792, 2007; B. Guerra et al., J. Appl. Physiol., 111, 715-725, 2011). The nitrocellulose membranes were then removed from the iBlot® Dry GelTransfer Device (no. IB1001EU, Invitrogen, Barcelona, Spain) and placed in a Ponceau S staining solution (0.5% Ponceau S and 1% glacial acetic acid in water) to verify equal loading of protein in the control and treated samples. After the membranes were stained for 5 min, they were rinsed for 2 min and examined. Equal loading of protein was verified, and the membranes were rinsed for an additional 10 min and immunoscreened. Membranes were blocked with 5% blotting grade blocker nonfat dry milk in Tris Buffered Saline with 0.05% Tween 20 (TBST; blotto-blocking buffer) for at least […]) at room temperature. They were washed thrice in TBS with 0.1% Tween 20 (TBST-0.1). Next, the membranes were incubated over night at 4° C. with the appropriate anti-phospho-antibodies (described below) all diluted (1:1000) in 1% bovine serum albumin (BSA)-1% blotto in TBST (BSA-blotto blocking buffer). […] Membranes were stripped of bound antibodies by incubation in stripping buffer (Restore™ Western Blot Stripping Buffer, no. 21059, Thermo Scientific, Rockford, Ill., USA) at room temperature for 30 min with agitation. Membranes were washed for 3×10 min in TBST-0.1, blocked with blotto-blocking buffer for at least 1 h and re-probed with the corresponding anti-total kinase antibodies (described below) all diluted (1:1000) in blotto-blocking buffer. […]

K562 cells [1] = experiment: K562-based MTT cell viability assay; design: species or system human; conditions: 48 h, read-out: Activity (IC50, reduction of cell viability)
Description: (§4) Cell viability was assayed by measuring the mitochondrial reduction of the tetrazolium salt 3-(4,5-methyltiazol-2yl)-2,5diphenyl-tetrazolium bromide] (MTT) (Applichen; A2231,0010) (Mosmann T. J Immunol Methods. 1983 16; 65(1-2):55-63; Chuan Y-C et al 2010. Oncogene. 29 (10), 1531-1542. Cells were seeded in 96-well plates in medium supplemented with 10% FBS (Lonza Cat. No: 14-502F), 2 mM L-Glut (Lonza Cat. No: BE17-605E) and 100 U/ml PEST (Lonza Cat. No: DE17-605E) at a cell density of 5000-20000 cells/well. Cells were seeded at a density according to their exponential growth phase. Vehicle (0.05% DMSO) or drug were added to culture medium at the indicated concentrations (10 to 0.01 microM) during 48 h. Then, MTT (0.3 mg/ml) was added to cells following by incubation for 2-4 h at 37° C. in the dark. The medium was then discarded and the formazan precipitate was solubilized by addition of 20% SDS (Sigma; L-5750) in 0.02N HCl (Panreac; 131020.1611) for 12-16 h. The optical density was measured at 595 nm with the iMark Microplate Reader (BioRad, USA). Data was expressed as percent growth above the level in controls and the results in figures were plotted as means±SEM of each test point from 3 replicates.
(§5) Statistical analysis. The concentration of drug that provokes 50% reduction of cell viability (IC50) was determined by using non-linear regression analysis and data were fitted to a log concentration vs normalized response curve in GraphPad software v5 (San Diego, Calif.).

HEL cells = experiment: HEL-based MTT cell viability assay; design: species or system human; conditions: 48 h, read-out: Activity (IC50, reduction of cell viability)
Description: as §4, §5

[2] = system: STAT5 transcription (pSPI-GLE1-luc) in HEK-GHR cells; experiment: HEK-GHR STAT5 transcription assay (luciferase reporter, rhGH stimulated); format: cell-based, human; conditions: compound 45 minutes before 50 nM rhGH, six hours, read-out: Activity (IC50, reduction of luciferase activity)
Text: Plasmids: The full-length GHR was subcloned into pcDNA1/ampicillin (Invitrogen) as described previously (Ross R J, Esposito N, Shen X Y, et al., Mol Endocrinol 1997, 11:265-73). The pSPI-GLE1 (serine protease inhibitor 2.1 GAS-like element 1)-luc reporter construct was generated by subcloning the Stat5-binding element from serine protease inhibitor gene together with a minimal thymidine kinase promoter into the pGL2 plasmid (Promega), which contains the firefly luciferase cDNA (Wood T J, Sliva D, Lobie P E, et al. J Biol Chem 1995, 270:9448-53).
Cell culture: HEK-GHR cell line was maintained in Dulbecco's Modified Eagle Medium (DMEM)/F12 supplemented with 10% fetal bovine serum (FBS) and 50 U/ml penicillin/50 U/ml streptomycin. The cells were maintained in a humidified incubator with 5% CO2 at 37° C. Cell culture reagents were obtained from PAA laboratories. The HEK-GHR cell line is a stable clone generated and kindly donated by Prof. Richard Ross (Clinical Sciences, Northern General Hospital, Sheffield, UK). Briefly, HEK-GHR cell line was generated in HEK 293 cells (human kidney embryonal cell line) by transfection with the calcium phosphate procedure of the GHR plasmid with pcDNA3/Neo (Invitrogen). Selection was made using G418 (400 ug/ml, Sigma) (Maamra M, Finidori J, Von Laue S, et al., J Biol Chem 1999, 274(21):14791-8).
Luciferase reporter assay: Transcription assays were performed in HEK-GHR. The HEK-GHR cells were co-transfected with Stat5 luciferase (pSPI-GLE1-luc) reporter vector together with a plasmid constitutively expressing beta-galactosidase by using Metafectene Pro as described by the manufacturer (Biontex Laboratories GmbH, Munich, Germany). Following transfection, HEK-GHR cells were serum-starved for 20 h. Cells were then treated with vehicle (0.1% DMSO) or the indicated compound for 45 minutes prior to the addition of 50 nM recombinant human Growth Hormone (rhGH) (Norditropin, Novo Nordisk) to the medium. Six hours following rhGH addition, cells were harvested with Passive Lysis Buffer (Promega), and levels of luciferase were measured using Luciferase Assay System as described by the manufacturer (Promega). The Galacto-Light Plus System (Applied Biosystems) was used to measure beta-galactosidase activity.
Statistical analysis. The concentration of drug that provokes 50% reduction of luciferase activity (IC50) was determined by using non-linear regression analysis and data were fitted to a log concentration vs normalized response curve in GraphPad software v5 (San Diego, Calif.).

STAT5 [3] = experiment: STAT5 phosphorylation western blot assay; format: cell-based, human; conditions: 10 microM, HEL or K562 cells (table does not say which)
Description: as §1, §2, §3

K562 cells [4] = conditions: cited from earlier work
STAT5 [5] = conditions: K562 cells, 30-100 μM; cited from earlier work

SMILES | IC50 (K562 cells [1]) | Activity (inhibition of JAK2 phosphorylation) (JAK2) | IC50 (HEL cells) | IC50 [2] | Activity (inhibition of STAT5 phosphorylation) (STAT5 [3]) | IC50 (K562 cells [1]; Homo sapiens) | IC50 (HEL cells; Homo sapiens) | IC50 ([2]; Homo sapiens) | cell cycle phases in flow cytometry experiments (K562 cells [4]) | tyrosine phosphorylation of STAT5 (STAT5 [5])
CC1(C)CC(=O)C2=C(C1)NC1=C(C(=O)c3ccncc3C1=O)C2c1ccccc1 (stereo not drawn) [Compound 13] | < 3 µM | ++ (++represents an inhibition at 10 microM > 50%) | < 3 µM | < 5 µM | +++ (+++represents an inhibition at 10 microM > 75%) |  |  |  |  | 
CC1(C)CC(=O)C2=C(C1)OC1=C(C(=O)c3ccccc3C1=O)C2c1ccc2c(c1)OCO2 (stereo not drawn) [Compound 16, 12-(benzo[d][1,3]dioxol-5-yl)-3,3-dimethyl-3,4-dihydro-1H-benzo[b]xanthene-1,6,11(2H,12H)-trione] |  |  |  |  |  | < 3 µM | < 3 µM | < 5 µM |  | 
O=C1CCCC2=C1C(c1ccc(Cl)cc1)C1=C(N2)C(=O)c2ccccc2C1=O (stereo not drawn) [Compound 1, 12-(4-chlorophenyl)-3,4-dihydrobenzo[b]acridine-1,6,11(2H,5H,12H)-trione] |  |  |  |  |  | < 10 µM | < 3 µM | < 5 µM |  | 
CC1(C)CC(=O)C2=C(C1)OC1=C(C(=O)c3ccccc3C1=O)C2c1ccc(C#N)cc1 (stereo not drawn) [Compound 3, 4-(3,3-dimethyl-1,6,11-trioxo-2,3,4,6,11,12-hexahydro-1H-benzo[b]xanthen-12-yl)benzonitrile] |  | ++ (++represents an inhibition at 10 microM > 50%) |  |  | +++ (+++represents an inhibition at 10 microM > 75%) | < 1 µM | < 1 µM | < 1 µM |  | 
O=C1CCCC2=C1C(c1ccc(Br)cc1)C1=C(N2)C(=O)c2ccccc2C1=O (stereo not drawn) [Compound 26, 12-(4-bromophenyl)-3,4-dihydrobenzo[b]acridine 1,6,11(2H,5H,12H)-trione] |  |  |  |  | + (+represents an inhibition at 10 microM > 50%) | < 1 µM | < 10 µM | < 5 µM |  | 
N#Cc1ccc(C2C3=C(CCCC3=O)NC3=C2C(=O)c2ccccc2C3=O)cc1 (stereo not drawn) [Compound 2, 4-(1,6,11-trioxo-1,2,3,4,5,6,11,12-octahydrobenzo[b]acridin-12-yl)benzonitrile] |  |  |  |  |  | < 1 µM | < 3 µM | < 1 µM |  | 
CC1(C)CC(=O)C2=C(C1)OC1=C(C(=O)c3ccccc3C1=O)C2c1cccs1 (stereo not drawn) [Compound 7, 3,3-dimethyl-12-(thiophen-2-yl)-3,4-dihydro-1H-benzo[b]xanthene-1,6,11(2H,12H)-trione] |  | +++ (+++represents an inhibition at 10 microM > 75%) |  |  | +++ (+++represents an inhibition at 10 microM > 75%) |  | < 10 µM | < 1 µM |  | 
COc1cc2ncnc(Nc3ccc(O)cc3)c2cc1OC [WHI-P131] |  |  |  |  |  |  |  |  | dose-dependent decrease in G1 and S phases and an increase in G2/M phases | caused a reduction in tyrosine phosphorylation of STAT5

Now from value to molecule, other results behind:

IC50 (K562 cells [1]) | SMILES | Activity (inhibition of JAK2 phosphorylation) (JAK2) | IC50 (HEL cells) | IC50 [2] | Activity (inhibition of STAT5 phosphorylation) (STAT5 [3]) | IC50 (K562 cells [1]; Homo sapiens) | IC50 (HEL cells; Homo sapiens) | IC50 ([2]; Homo sapiens) | cell cycle phases in flow cytometry experiments (K562 cells [4]) | tyrosine phosphorylation of STAT5 (STAT5 [5])
< 10 µM | O=C1CCCC2=C1C(c1ccc3c(c1)OCO3)C1=C(N2)C(=O)c2ccccc2C1=O (stereo not drawn) [Compound 18] | ++ (++represents an inhibition at 10 microM > 50%) |  |  | + (+represents an inhibition at 10 microM > 50%) |  |  |  |  | 
< 10 µM | O=C1CCCC2=C1C(c1cccc(Br)c1)C1=C(N2)C(=O)c2ccccc2C1=O (stereo not drawn) [Compound 27] | + (+represents an inhibition at 10 microM > 30%) | < 3 µM | < 5 µM |  |  |  |  |  | 
